# Reference: US8932853B2, “Method for manufacturing pancreatic-hormone-producing cells” (Takeda Pharmaceutical Company Limited, priority 2009, dated 2015)
# “Also recorded” adds a separate entry of the source.
# Experiments:
# [1] = test system: endodermal cells induced from human iPS cells; experiment: immunofluorescent staining with anti-PDX1 antibody after step (3); conditions: added simultaneously with retinoic acid (2 μM) for 7 days, day 3 to day 10; Noggin 100 ng/ml, dorsomorphin 1 μM
# [2] = test system: endodermal cells induced from human iPS cells; format: cell-based; conditions: added simultaneously with dorsomorphin (1 μM) and retinoic acid (2 μM) day 3 to day 10; SB431542 5 μM, ALK5 inhibitor II 2 μM, A-83-01 0.2 μM, TGFβRI kinase inhibitor VIII 0.2 μM; vs dorsomorphin and retinoic acid alone
# Method: The dorsomorphin is an inhibitor of AMP-activated protein kinase (AMPK), and an inhibitor of ALK2, ALK3 and ALK6 from among activin receptor-like kinases (ALK). In addition, SB431542 is an inhibitor of ALK4, ALK5 and ALK7 from among ALKs.
# As a control, the medium was changed to one added with dorsomorphin and retinoic acid alone (Ctrl). […] After the culture, the expression level of NGN3, which is progenitor cells of pancreatic hormone-producing cells marker, was measured in the same manner as in Example 1.
# [3] = test system: progenitor cells of pancreatic hormone-producing cells induced from human iPS cells; experiment: quantitative RT-PCR of insulin and PDX1 after step (4); format: cell-based; conditions: added in step (4) from day 10; forskolin 10 μM, nicotinamide 10 mM, dexamethasone 10 μM, ALK5 inhibitor II 5 μM; measured on day 12, 16 and 20; vs control without inducing factors
# Method: The expression level of PDX1, which is pancreatic progenitor cells marker, and insulin, which is pancreatic β cells (insulin-producing cells) marker, was measured in the same manner as in Example 1.
# The medium was changed once on day 7 of induction. […] The medium was changed every 3-4 days. After culture, the expression level of insulin was measured in the same manner as in Experimental Example 1.
# The medium was changed once on day 7 of induction. […] The medium was changed every 5 days.
# After culture under each condition, the expression levels of insulin in the cells on day 12 of differentiation induction, on day 16 of differentiation induction and day 20 of differentiation induction were measured in the same manner as in Example 1.
# [4] = test system: progenitor cells of pancreatic hormone-producing cells induced from human iPS cells; experiment: immunofluorescent staining with anti-insulin antibody after step (4); format: cell-based; conditions: each added alone in step (4), day 10 to day 21; forskolin 10 μM, dibutyl cAMP 500 μM, IBMX 200 μM, ALK5 inhibitor II 5 μM, A-83-01 0.5 μM, SB431542 10 μM, TGFβRI kinase inhibitor VIII 2 μM, dexamethasone 10 μM, hydrocortisone 5 μM, betamethasone 2 μM, beclomethasone 1 μM
# [5] = test system: human iPS cells (253G1 strain); experiment: immunofluorescent staining with anti-SOX17 antibody on day 3 of differentiation induction; format: cell-based; conditions: added with activin A (100 ng/ml) for 1 day, then activin A alone 2 days, CHIR99021 3 μM, Wnt3a 25 ng/ml, SB415286 3 μM, SB216763 20 μM
# Method: To examine expression of SOX17 protein after culture for 3 days, immunofluorescent staining using an anti-SOX17 antibody was performed. After culture up to day 3 in the same manner as in FIG. 1, the cells were fixed with 2% para-formaldehyde (PFA) for 10 min and further for 20 min with 4% PFA at room temperature.
# Whether even use of a GSK3 inhibitor other than CHIR99021 in step (1) enables differentiation induction into endodermal cells was examined. The differentiation of human iPS cells into endodermal cells was induced according to the following method. […] Thereafter, the cells were washed with RPMI medium (GIBCO), and cultured for 1 day in RPMI medium containing various GSK3 inhibitors, activin A (100 ng/ml) and 2% fetal bovine serum (FBS). […] As a control, the cells were treated with a medium added only with activin A and free of GSK3 inhibitor. After culture for 1 day, the cells were washed with RPMI medium, and further cultured for 2 days in RPMI medium added with 2% FBS and 100 ng/ml activin A.
# To examine expression of SOX17 protein on day 3 of differentiation induction, immunofluorescent staining using an anti-SOX17 antibody was performed. 4% PFA was added to the cells on day 3 of culture under each condition, the mixture was incubated at room temperature for 30 min to fix the cells.
# [6] = test system: human iPS cells (253G1 strain); experiment: quantitative RT-PCR of BRACHYURY and SOX17 during induction of human iPS cells into endodermal cells, steps (1)-(2); format: cell-based; conditions: added with activin A (100 ng/ml) only the first day, CHIR99021 3 μM, Wnt3a 25 ng/ml, relative to GAPDH
# Excerpt: As a first stage for induction of differentiation of human iPS cells (iPS cells obtained by introducing Oct3/4 gene, Klf4 gene and Sox2 gene: see Nat Biotechnol 2008; 26: 101-106) into pancreas cells (particularly pancreatic hormone-producing cells), differentiation of human iPS cells was induced into endodermal cells by using a 96 well plate.
# As the human iPS cells, 253G1 strain (iPS cell line produced by expressing OCT4/SOX2/KLF4 with retrovirus; Nature Biotechnology 26, 101-106) was used. Maintenance culture of the iPS cells in an undifferentiated state was performed using mitomycin-treated mouse fibroblast (MEFs) seeded on a gelatin-coated plate as feeder cells, and a medium for primate ES cells (ReproCELL Incorporated) added with 4 ng/ml bFGF (PeproTech EC) and 0.5× Penicillin-streptomycin (SIGMA) as a medium at 37° C. under 5% CO2. The medium was changed every day, the cell mass was detached every 4-5 days using a cell detachment solution for primate ES cell (ReproCELL Incorporated), and passaged by seeding on new feeder cells.
# As a preculture for differentiation induction into endodermal cells, undifferentiated iPS cells were seeded in a 96 well plate. First, iPS cells maintained in a cell mass was treated with 0.25% trypsin-1 mM EDTA solution (GIBCO) and dissociated until they became single cells. Then, iPS cells dispersed in a medium were seeded in a 96 well plate at a density of 2×10^4 cells per well and cultured at 37° C. under 5% CO2 for 1 day. The 96 well plate used had been gelatin-coated, seeded with 5×10^3 MEFs and cultured at 37° C. under 5% CO2 for 5 hr. In addition, as a culture medium for seeding, a medium for primate ES cells added with 10 μM Y-27632 (Wako Pure Chemical Industries, Ltd.) was used. One day after seeding, the medium was changed to a medium for primate ES cells without Y-27632, and the cells were further cultured for 2 days until they became confluent.
# Differentiation of iPS cells into endodermal cells was induced according to the following method. First, the confluent cells were washed with RPMI medium (GIBCO), RPMI medium containing various differentiation-inducing factors and 2% fetal bovine serum (FBS) was added, and the mixture was cultured for 1 day. […]
# To examine variation in the expression of endoderm differentiation marker when cultured under each condition, differentiation-induced cells were recovered over time, and the total RNA fractions were purified using RNeasy96 (Qiagen). Using a PrimeScript RT reagent kit (Takara Bio Inc.), cDNA was synthesized, and quantitative RT-PCR was performed, whereby the gene expression level of BRACHYURY, which is a primitive streak marker, and SOX17, which is an endodermal marker, was measured.
molecule,measurement,setting,value
"c1cc(-c2cnn3cc(-c4ccc(OCCN5CCCCC5)cc4)cnc23)ccn1 [dorsomorphin, 6-[4-(2-piperidin-1-ylethoxy)phenyl]-3-pyridin-4-ylpyrazolo[1,5-a]pyrimidine]",differentiation into PDX1-positive cells,[1],remarkably induced; also recorded: many cells were induced into PDX1-positive cells
"Cc1cccc(-c2n[nH]cc2-c2ccc3ncccc3n2)n1 [ALK5 inhibitor II, 2-[3-[6-methylpyridin-2-yl]-1H-pyrazol-4-yl]-1,5-naphthyridine]",expression level of NGN3,[2],increased remarkably
same,expression level of insulin,[3],increased markedly; also recorded: high value
same,positive rate of insulin-expressing cells,[4],remarkably increased; also recorded: induced differentiation into insulin-positive cells with high efficiency
"Wnt3a: differentiation-inducing factor generally used for endoderm induction along with activin A (protein, UniProt P56704 19-352, looked up) Protein Wnt-3a: SYPIWWSLAVGPQYSSLGSQPILCASIPGLVPKQLRFCRNYVEIMPSVAEGIKIGIQECQHQFRGRRWNCTTVHDSLAIFGPVLDKATRESAFVHAIASAGVAFAVTRSCAEGTAAICGCSSRHQGSPGKGWKWGGCSEDIEFGGMVSREFADARENRPDARSAMNRHNNEAGRQAIASHMHLKCKCHGLSGSCEVKTCWWSQPDFRAIGDFLKDKYDSASEMVVEKHRESRGWVETLRPRYTYFKVPTERDLVYYEASPNFCEPNPETGSFGTRDRTCNVSSHGIDGCDLLCCGRGHNARAERRREKCRCVFHWCCYVSCQECTRVYDVHTCK",ratio of cells expressing SOX17 protein,[5],a part of the cells also expressed SOX17 protein; also recorded: remarkably detected
same,expression level of SOX17 (endodermal marker),"[6]; then activin A alone 2 days, days 2-3",also lower than with a treatment with CHIR99021; also recorded: high value
same,expression level of BRACHYURY (primitive streak marker),[6]; day 1 of differentiation induction,lower than with a treatment with CHIR99021
"Noggin: BMP antagonist (protein, UniProt Q13253 28-232, looked up) Noggin: QHYLHIRPAPSDNLPLVDLIEHPDPIFDPKEKDLNETLLRSLLGGHYDPGFMATSPPEDRPGGGGGAAGGAEDLAELDQLLRQRPSGAMPSEIKGLEFSEGLAQGKKQRLSKKLRRKLQMWLWSQTFCPVLYAWNDLGSRFWPRYVKVGSCFSKRSCSVPEGMVCKPSKSVHLTVLRWRCQRRGGQRCGWIPIQYPIISECKCSC",differentiation into PDX1-positive cells,[1],remarkably induced; also recorded: many cells were induced into PDX1-positive cells
